Source: patent US9365554B2, “Viral polymerase inhibitors” (BIOTA SCIENTIFIC MANAGEMENT PTY LTD, priority 2012, dated 2016)

Columns and labels:
1b (BK) NS5BΔ21 = molecular target: T1, 1b (BK) NS5BΔ21 (Hepatitis C virus genotype 1b, UniProt P26663); assay: HCV Polymerase Inhibition Assay; assay type: biochemical; conditions: in each of the HCV assays tested (polymerase and replicon assays)
T1 construct: 100 nM, 1b (BK) NS5BΔ21
Protocol: HCV polymerase reactions were carried out using a modified method of Howe et al., Antimicrobial Agents and Chemotherapy 2004 48(12): 4813-4821. Reactions contained a final concentration of, 0.5% DMSO, 100 nM, 1b (BK) NS5BΔ21, 20 mM Tris-HCl pH 7.5, 5 mM MgCl2, 5 mM MnCl2, 3 mM DTT, 0.05% BSA, 0.2 U/μL RNasin, 10 μg/mL Poly(rC) template, GTP (at Km) and 0.05 μCi/μL ^33P-GTP in a total reaction volume of 50 μL. Compounds were tested in a three fold dilution series, for example starting from 50 μM. Reactions were initiated with the addition of GTP and terminated after 90 min with 50 μL ice cold 0.2 M EDTA. Terminated reactions were transferred to DEAE 96-well filter plates, unincorporated nucleotides washed from the filters and 50 μL scintillation fluid added prior to reading on a scintillation counter. The compound concentration that reduced ^33P-GTP incorporation by 50% (IC50) was calculated using non-linear regression.

[1] = Aqueous Solubility (laser nephelometry); assay type: physicochemical; conditions: at both pH2 and pH6.5; good solubility when >25 ug/mL
Protocol: Test compounds prepared in DMSO were screened in duplicate over a range of concentrations (1.6-100 ug/mL) in different aqueous media (for example a pH6.5 buffers which are relevant to the stomach and upper regions of the small intestine and therefore important when predicting the amount of drug likely to be in solution following oral administration). Test compounds were serially diluted in 100% DMSO ranging from 10-0.16 mg/mL. These titrated DMSO stocks were then further diluted 1:100 with assay buffer and added to test plates (UV Star Griener 384 well plates), maintaining the DMSO concentration at 1%.

T1 sequence (P26663 2420-2989, stated change not applied): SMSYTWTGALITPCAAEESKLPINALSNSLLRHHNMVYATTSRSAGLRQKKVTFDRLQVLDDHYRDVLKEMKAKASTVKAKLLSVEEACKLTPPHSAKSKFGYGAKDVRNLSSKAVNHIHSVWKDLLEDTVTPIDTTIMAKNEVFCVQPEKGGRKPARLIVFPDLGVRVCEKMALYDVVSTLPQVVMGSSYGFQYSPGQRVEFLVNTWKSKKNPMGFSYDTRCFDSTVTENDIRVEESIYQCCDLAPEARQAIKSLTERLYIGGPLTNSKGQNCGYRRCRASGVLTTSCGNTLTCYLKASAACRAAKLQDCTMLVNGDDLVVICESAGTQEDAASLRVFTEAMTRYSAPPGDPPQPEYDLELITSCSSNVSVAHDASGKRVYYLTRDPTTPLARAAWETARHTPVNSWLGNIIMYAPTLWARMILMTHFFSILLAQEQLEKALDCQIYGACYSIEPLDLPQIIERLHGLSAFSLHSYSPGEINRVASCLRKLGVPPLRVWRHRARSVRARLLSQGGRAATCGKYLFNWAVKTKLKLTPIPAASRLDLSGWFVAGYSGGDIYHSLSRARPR

**Q.** For `CCN(c1cc2nn(-c3ccc(C)cn3)c(C(=O)NC)c2cc1C1CC1)S(C)(=O)=O` [Compound 5, 5-cyclopropyl-6-[ethyl(methylsulfonyl)amino]-N-methyl-2-(5-methylpyridin-2-yl)-2H-indazole-3-carboxamide], which “times more potent than Compound A” value (1b (BK) NS5BΔ21) is on record?
**A.** at least 10 times

**Q.** And the “solubility (in words)” value [1]?
**A.** good solubility

**Q.** For `CCN(c1cc2nn(-c3ccc(C)nc3)c(C(=O)NC)c2cc1C1CC1)S(C)(=O)=O` [Compound A, 5-Cyclopropyl-6-[ethyl(methylsulfonyl)amino]-N-methyl-2-(6-methylpyridin-3-yl)-2H-indazole-3-carboxamide, reference compound], which “solubility (in words)” value [1] is on record?
**A.** very poorly soluble
